From patent US20170339957A1, “AQUEOUS DISPERSIONS” (Rohm and Haas Company, priority 2011, published 2017)

Experiments:
[1] = pH 7.5 or lower; cited from earlier work
[2] = Protocol 1: dissolving BIT in basic solution (exotherm peak, pH, dissolution and inherent precipitation temperature); format: physicochemical
Source text: “Protocol 1” means the following: A mixture (herein “mixture 1”) was formed as follows: 151.18 g of BIT paste (concentration 83% to 85% BIT by weight based on the weight of the paste) was mixed with basic solution and with water. The amount of basic solution was chosen to have equivalent ratio of 1:1 with BIT, and the amount of water was chosen to make Mixture 1 have the desired concentration of BIT. In some cases, the process of mixing the ingredients of Mixture 1 is exothermic; in such cases, the peak temperature reached by the mixture was recorded as the “exotherm peak.” From that mixture, a sample of 100 g (herein the “test1 batch”) was used. If some or all of the BIT was not dissolved, the test1 batch was heated (up to a maximum of 61° C.), and if there was a temperature of 61° C. or below at which all the BIT was dissolved, that temperature was recorded as the “dissolution temperature.” If BIT is all dissolved at ambient temperature, the dissolution temperature is herein taken to be 23° C. Then, the inherent precipitation temperature was observed by cooling the test 1 batch to 0° C. or to a point at which BIT precipitated, whichever temperature is higher. Then, the test 1 batch was heated to a temperature (herein “T2”) at or above the dissolution temperature; while the solution was at temperature T2, thickener was added and acid solution was added.
In some of the Examples below, Protocol 1 was performed repeatedly, using various basic solutions and various concentrations of BIT. The purpose of these repeated performances of Protocol 1 was to answer the following question: “While using a specific basic solution and using temperatures between approximately 23° C. and approximately 60° C., when making aqueous mixture (I), what range of BIT concentration is possible?”

SMILES: O=c1[nH]sc2ccccc12 [BIT, 1,2-Benzisothiazolin-3-one]
- solubility in water [1]: low solubility
- BIT concentration range for making aqueous mixture (I) ([2]; using ammonia): 5%
- BIT concentration range for making aqueous mixture (I) ([2]; using diaminoethane): 5%
- BIT concentration range for making aqueous mixture (I) ([2]; using mono-ethanolamine): 5%
